Assays:
[1] = test system: dopaminergic neurons; assay: Survival of dopaminergic neurons with paraquat 25 μM challenge (Example 1, FIG. 1); format: cell-based, mouse
Method: (§1) Dopaminergic neurons were isolated and plated at a concentration of 1.000.000 cells/ml (100 μl/well) in a 96 well plate and cultured in medium with one or more of the various factors indicated, as described in the examples below. The survival of dopaminergic neurons in the presence and absence of various agents of the invention, either with or without paraquat challenge, is shown by the number of TH positive neurons normalized to the control treatment.
Dopaminergic neurons were isolated and plated at a concentration of 1.000.000 cells/ml (100 μl/well) in a 96 well plate. After 3-4 hours incubation at 37° C., 20 μl of medium was removed from each well. (VF=80 μl). Changes in medium and start point of the treatment were done in the following day in vitro (DIV). The following protocol was employed in order to assess the survival of dopaminergic neurons in the presence and absence of various agents of the invention combination, either with or without paraquat challenge. • DIV.1: Change half of medium N2 (40 μl) with fresh medium N2. • DIV.3: Change half of the medium and start with medium (control) or with medium A containing LA (different concentrations) and/or GA (normally 5 mM or 10 mM). Medium A is N2 medium but without FBS and N2-Supplement. • DIV.5: Second round of control or treatment with LA and/or GA. Half of the medium (40 μl) was replaced by fresh medium A with the different agents. • DIV.7: Paraquat 25 μM treatment starts with or without GA and L-alanine. Half of the medium (40 μl) was replaced by fresh medium A with the different treatment combinations or without (control). • DIV.9: Second day of treatment with Paraquat (PQ) 25 μM in addition to the other substances (LA and GA). • DIV.10: Fixation 2% of PFA during 20 min at 37° C. or overnight at 4° C.
Primary mesencephalic neuronal cell cultures were prepared as previously described. Briefly, E14.5 embryos were obtained from C57JBL6 pregnant mice after cervical dislocation. Brain mesencephali were dissected under the microscope and digested with Trypsin-EDTA 0.12% (Life Technologies, USA) for 7 min. The trypsin reaction was then stopped by adding basic medium (BM), containing Neurobasal A medium (Gibco, USA), 1 mg/mL Pen/Strep, 10% FCS, and […] L-Glutamine, and cells were mechanically dissociated using a fire-polished Pasteur pipette. Medium was fully replaced after 5 min, centrifugation at 1200 rpm, aspiring the supernatant and adding 8 mL of fresh BM to the pellet. Concentration of cells in the medium was estimated using a Neubauer chamber and a 100 μL of medium containing 10^6 cells/mL plated per well in a 96-well plate (Greiner Sensoplate, Germany, EU). Then a 20 μL of medium was removed from the well and 24 h later, ⅓ of the media was replaced with fresh BM. […]

[2] = test system: dopaminergic neurons; assay: Survival of dopaminergic neurons with paraquat 12.5 μM challenge (Example 5, FIGS. 19, 20); format: cell-based, mouse; conditions: for number of TH positive neurons normalized to the control treatment: FIG. 19
Method: as §1
Dopaminergic neurons were isolated and plated at a concentration of 1.000.000 cells/ml (100 μl/well) in a 96 well plate. After 3-4 hours incubation at 37° C., 20 μl of medium was removed from each well. (VF=80 μl). Changes in medium and start point of the treatment were on the following day in vitro (DIV). The following protocol was employed to assess the survival of dopaminergic neurons in the presence and absence of various agents of the inventive combination, either with or without paraquat challenge. • DIV.1: Change half of medium N2 (40 μl) with fresh medium N2. • DIV.3: Change half of the medium and start with medium (control) or with medium A containing PB (0.15 mM) and TUDCA (0.5 mM), or with Medium A containing GA (normally 1 mM, 3 mM, or 10 mM) or with Medium A containing GA (1 mM or 3 mM) and PB (0.15 mM) or with Medium A containing GA (5 mM) and TUDCA (0.5 mM) or with Medium A containing PB (0.15 mM). Medium A is N2 medium but without FBS and N2-Supplement. • DIV.5: Second round of control or treatment with different treatments. Half of the medium (40 μl) was replaced by fresh medium A with the different agents. • DIV.7: Paraquat 12.5 μM treatment starts alone or in combination with the treatments explained above. Half of the medium (40 μl) was replaced by fresh medium A with the different treatment combinations or without (control). • DIV.9: Second day of treatment with Paraquat (PQ) 12.5 μM in addition to the other treatments as explained above. • DIV.11: Fixation 2% of PFA during 20 min at 37° C. or overnight at 4° C.
The effect of the different treatments on dopaminergic neurons survival upon exposure to paraquat was assessed through of TH+ neurons after treatment. Briefly, neurons were fixed using 2% paraformaldehyde for immunocytochemical analysis after treatment. Dopaminergic TH^+ neurons per well were identified and counted using an inverted fluorescence microscope (Olympus) under a 20× objective.

[3] = human, in vivo, 15 weeks
Excerpt: Potential side effects were closely monitored.

[4] = test system: HeLa cells; assay: Intracellular calcium, Fluo4-AM loaded HeLa cells, fluorescent plate reader; format: cell-based; conditions: FIG. 12
Excerpt: HeLa cells were loaded with Fluo4-AM and fluorescence was monitored with the help of a fluorescent plate reader. Values are normalized to the initial fluorescent value.

[5] = test system: DJ-1 RNAi depleted HeLa cells; conditions: DJ-1 RNAi depleted HeLa cells or paraquat challenge; cited from earlier work
[6] = test system: patients with ALS; assay: Individualised clinical trials in ALS patients: therapeutic effect (creatine kinase, gripping force, muscle strength); conditions: human patients, in some cases
Method: Gripping force measured in kilograms with the help of a Digital Hand Dynamometer once a week to every two weeks.
Evolution of the muscle strength on the right arm was measured once a week to every two weeks using the Janda Muscle Strength Scale.
Patients with ALS were recruited for the study and agreed to all legal regulations surrounding the curative attempt. Potential side effects were closely monitored. Liver and kidney values were checked once a week (1 day after dosing), in order to monitor whether any unwanted side effects were observed. To test the therapeutic effect, the evolution of the ALS score and strength evolution were measured over time.
All patients also received 6 grams of L-Alanine per day.
The above-mentioned treatment regime was conducted in 4 patients, either with FUS, TARDBP or SOD-1 mutations underlying their ALS. […] The patients were treated between 4 months and 17 months.

O=C(O)CO [GA, 2-hydroxyethanoic acid]
survival of dopaminergic neurons (rescue) ([1]; 5 mM GA with PQ 25 μM): rescue over PQ treatment alone
survival of dopaminergic neurons (rescue) ([1]; 10 mM GA with PQ 25 μM): rescued completely
number of TH positive neurons normalized to the control treatment ([2]; PQ 12.5 μM + 1 mM GA): 0.65
number of TH positive neurons normalized to the control treatment ([2]; PQ 12.5 μM + 3 mM GA): 0.71
survival of dopaminergic neurons (rescue) ([2]; PQ 12.5 μM + 5 mM GA alone): certain rescue
GA dose at which reactive instant feces deposition was observed [3]: above 120 mg/kg
GA dose leading to reactive instant feces deposition [3]: higher than 150 mg/kg
intracellular calcium (Fluo4-AM fluorescence normalized to initial value) [4]: reduce intracellular calcium
mitochondrial potential [5]: maintain or rescue mitochondrial potential
GA dose at which efficacious doses were first observed [6]: above 70 mg/kg
